# In patent publication US4140785A, “N-(benzothienopyrazol)amide antirhinoviral agents” (E. I. Du Pont de Nemours and Company, priority 1978, dated 1979):
# Where two headings read alike, the source gives them in different places.
# Assays:
# [1] = system: rhinovirus; test: In vitro activity against rhinovirus strains (overall); type: cell-based; conditions: preferred compounds
# [2] = system: Rhinovirus 998; test: Plaque inhibition in HeLa cells, rhinovirus 998; conditions: for Plaque counts per plate: 998, untreated 190; for MIC: Enterovirus
# [3] = system: Rhinovirus 1492; test: Plaque inhibition in HeLa cells, rhinovirus 1492; conditions: for Plaque counts per plate: 1492, untreated 255; for MIC: Enterovirus
# [4] = system: Rhinovirus type 3; test: Plaque inhibition in HeLa cells, rhinovirus type 3; conditions: for Plaque counts per plate: type 3, untreated 170; for MIC: Enterovirus
# [5] = system: Rhinovirus type 1A; test: Plaque inhibition in HeLa cells, rhinovirus type 1A; conditions: for Plaque counts per plate: type 1A, untreated 211; for MIC: Enterovirus
# [6] = system: Rhinovirus type 14; test: Plaque inhibition in HeLa cells, rhinovirus type 14; conditions: for Plaque counts per plate: type 14, untreated 194; for MIC: Enterovirus
# [7] = system: Rhinovirus type 15; test: Plaque inhibition in HeLa cells, rhinovirus type 15; conditions: for Plaque counts per plate: type 15, untreated 145; for MIC: Enterovirus
# [8] = system: Rhinovirus type 39; test: Plaque inhibition in HeLa cells, rhinovirus type 39; conditions: for Plaque counts per plate: type 39, untreated 112; for MIC: Enterovirus
# [9] = system: Rhinovirus type 51; test: Plaque inhibition in HeLa cells, rhinovirus type 51; conditions: for Plaque counts per plate: type 51, untreated 118; for MIC: Enterovirus
# [10] = system: influenza A virus strains; conditions: prophylaxis and symptomatic treatment; cited from earlier work
# [11] = system: Rhinovirus 1425; test: Plaque inhibition in HeLa cells, rhinovirus 1425; conditions: Enterovirus, read-out: Minimum Inhibitory Concentration (MIC)
# [12] = system: Rhinovirus 1662; test: Plaque inhibition in HeLa cells, rhinovirus 1662; conditions: Enterovirus, read-out: Minimum Inhibitory Concentration (MIC)
# [13] = system: Rhinovirus 4005; test: Plaque inhibition in HeLa cells, rhinovirus 4005; conditions: Enterovirus, read-out: Minimum Inhibitory Concentration (MIC)
# [14] = system: Rhinovirus 6579; test: Plaque inhibition in HeLa cells, rhinovirus 6579; conditions: Enterovirus, read-out: Minimum Inhibitory Concentration (MIC)
# [15] = system: Rhinovirus type 2; test: Plaque inhibition in HeLa cells, rhinovirus type 2; conditions: Enterovirus, read-out: Minimum Inhibitory Concentration (MIC)
# [16] = system: Rhinovirus type 5; test: Plaque inhibition in HeLa cells, rhinovirus type 5; conditions: Enterovirus, read-out: Minimum Inhibitory Concentration (MIC)
# [17] = system: Rhinovirus type 1b; test: Plaque inhibition in HeLa cells, rhinovirus type 1B; conditions: Enterovirus, read-out: Minimum Inhibitory Concentration (MIC)
# [18] = system: Rhinovirus type 13; test: Plaque inhibition in HeLa cells, rhinovirus type 13; conditions: Enterovirus, read-out: Minimum Inhibitory Concentration (MIC)
# [19] = system: Rhinovirus type 41; test: Plaque inhibition in HeLa cells, rhinovirus type 41; conditions: Enterovirus, read-out: Minimum Inhibitory Concentration (MIC)
# [20] = system: herpes simplex keratitis; conditions: topical treatment; cited from earlier work
# [21] = system: smallpox; conditions: cited from earlier work
# [22] = read-out: Minimum Inhibitory Concentration (MIC)
smiles,measurement,setting,value
CCC(CC)(CC)C(=O)Nc1nn(C)c2c1sc1ccccc12,Level of antirhinovirus activity,[1],high level of antirhinovirus activity
same,Plaque counts per plate,[2]; 0.1 μg/ml,103 Plaque counts per plate
same,Plaque counts per plate,[2]; 0.5 μg/ml,0 Plaque counts per plate
same,Plaque counts per plate,[2]; 1.0 μg/ml,0 Plaque counts per plate
same,Plaque counts per plate,[2]; 2.0 μg/ml,0 Plaque counts per plate
same,MIC,[2],0.5 µg/mL
same,Plaque counts per plate,[3]; 0.1 μg/ml,140 Plaque counts per plate
same,Plaque counts per plate,[3]; 0.5 μg/ml,12 Plaque counts per plate
same,Plaque counts per plate,[3]; 1.0 μg/ml,0 Plaque counts per plate
same,Plaque counts per plate,[3]; 2.0 μg/ml,0 Plaque counts per plate
same,MIC,[3],1 µg/mL
same,Plaque counts per plate,[4]; 0.1 μg/ml,119 Plaque counts per plate
same,Plaque counts per plate,[4]; 0.5 μg/ml,0 Plaque counts per plate
same,Plaque counts per plate,[4]; 1.0 μg/ml,0 Plaque counts per plate
same,Plaque counts per plate,[4]; 2.0 μg/ml,0 Plaque counts per plate
same,MIC,[4],0.5 µg/mL
same,Plaque counts per plate,[5]; 0.1 μg/ml,153 Plaque counts per plate
same,Plaque counts per plate,[5]; 0.5 μg/ml,60 Plaque counts per plate
same,Plaque counts per plate,[5]; 1.0 μg/ml,4 Plaque counts per plate
same,Plaque counts per plate,[5]; 2.0 μg/ml,0 Plaque counts per plate
same,MIC,[5],2 µg/mL
same,Plaque counts per plate,[6]; 0.1 μg/ml,125 Plaque counts per plate
same,Plaque counts per plate,[6]; 0.5 μg/ml,20 Plaque counts per plate
same,Plaque counts per plate,[6]; 1.0 μg/ml,0 Plaque counts per plate
same,Plaque counts per plate,[6]; 2.0 μg/ml,0 Plaque counts per plate
same,MIC,[6],1 µg/mL
same,Plaque counts per plate,[7]; 0.1 μg/ml,61 Plaque counts per plate
same,Plaque counts per plate,[7]; 0.5 μg/ml,0 Plaque counts per plate
same,Plaque counts per plate,[7]; 1.0 μg/ml,0 Plaque counts per plate
same,Plaque counts per plate,[7]; 2.0 μg/ml,0 Plaque counts per plate
same,MIC,[7],0.5 µg/mL
same,Plaque counts per plate,[8]; 0.1 μg/ml,65 Plaque counts per plate
same,Plaque counts per plate,[8]; 0.5 μg/ml,4 Plaque counts per plate
same,Plaque counts per plate,[8]; 1.0 μg/ml,0 Plaque counts per plate
same,Plaque counts per plate,[8]; 2.0 μg/ml,0 Plaque counts per plate
same,MIC,[8],1 µg/mL
same,Plaque counts per plate,[9]; 0.1 μg/ml,211 Plaque counts per plate
same,Plaque counts per plate,[9]; 0.5 μg/ml,28 Plaque counts per plate
same,Plaque counts per plate,[9]; 1.0 μg/ml,0 Plaque counts per plate
same,Plaque counts per plate,[9]; 2.0 μg/ml,0 Plaque counts per plate
same,MIC,[9],1 µg/mL
Cl.NC12CC3CC(CC(C3)C1)C2 [1-aminoadamantane hydrochloride],Effectiveness against illness caused by influenza A virus,[10],effective for the prophylaxis and symptomatic treatment of illness caused by influenza A virus strains
"Cn1nc(NC(=O)C(C)(C)C)c2sc3ccccc3c21 [2,2-dimethyl-N-(1-methyl-1H-(1)benzothieno[3,2-c]pyrazol-3-yl)propanamide]",Level of antirhinovirus activity,[1],high level of antirhinovirus activity
Cn1nc(NC(=O)CC2CCCC2)c2sc3ccccc3c21 [Example 62],MIC,[2]; [22],2 µg/mL
same,MIC,[11],2 µg/mL
same,MIC,[3]; [22],2 µg/mL
same,MIC,[12],8 µg/mL
same,MIC,[13],2 µg/mL
same,MIC,[14],2 µg/mL
same,MIC,[15],2 µg/mL
same,MIC,[4]; [22],4 µg/mL
same,MIC,[16],2 µg/mL
same,MIC,[5]; [22],6 µg/mL
same,MIC,[17],2 µg/mL
same,MIC,[18],2 µg/mL
same,MIC,[6]; [22],6 µg/mL
same,MIC,[7]; [22],5 µg/mL
same,MIC,[8]; [22],2 µg/mL
same,MIC,[19],2 µg/mL
same,MIC,[9]; [22],8 µg/mL
"CCC(CC)C(=O)Nc1nn(C)c2c1sc1ccccc12 [Example 63, 2-ethyl-N-(1-methyl-1H-(1)benzothieno[3,2-c]pyrazol-3-yl)butanamide]",Level of antirhinovirus activity,[1],high level of antirhinovirus activity
same,MIC,[2]; [22],1 µg/mL
same,MIC,[11],2 µg/mL
same,MIC,[3]; [22],1 µg/mL
same,MIC,[12],1 µg/mL
same,MIC,[13],2 µg/mL
same,MIC,[14],2 µg/mL
same,MIC,[15],2 µg/mL
same,MIC,[4]; [22],0.5 µg/mL
same,MIC,[16],2 µg/mL
same,MIC,[5]; [22],1 µg/mL
same,MIC,[17],2 µg/mL
same,MIC,[18],2 µg/mL
same,MIC,[6]; [22],1 µg/mL
same,MIC,[7]; [22],0.5 µg/mL
same,MIC,[8]; [22],0.5 µg/mL
same,MIC,[19],2 µg/mL
same,MIC,[9]; [22],1 µg/mL
CC(C)CC(=O)Nc1nn(C)c2c1sc1ccccc12 [Example 64],MIC,[2]; [22],1 µg/mL
same,MIC,[11],4 µg/mL
same,MIC,[3]; [22],2 µg/mL
same,MIC,[12],2 µg/mL
same,MIC,[13],2 µg/mL
same,MIC,[14],2 µg/mL
same,MIC,[15],2 µg/mL
same,MIC,[4]; [22],1 µg/mL
same,MIC,[16],2 µg/mL
same,MIC,[5]; [22],1 µg/mL
same,MIC,[17],2 µg/mL
same,MIC,[18],2 µg/mL
same,MIC,[6]; [22],1 µg/mL
same,MIC,[7]; [22],1 µg/mL
same,MIC,[8]; [22],1 µg/mL
same,MIC,[19],2 µg/mL
same,MIC,[9]; [22],2 µg/mL
"CC(=O)Nc1nn(C)c2c1sc1ccccc12 [Example 65, N-(1-methyl-1H-(1)benzothieno[3,2-c]pyrazol-3-yl)-acetamide]",MIC,[2]; [22],8 µg/mL
same,MIC,[11],2 µg/mL
same,MIC,[3]; [22],8 µg/mL
same,MIC,[12],10 µg/mL
same,MIC,[13],2 µg/mL
same,MIC,[14],5 µg/mL
same,MIC,[15],4 µg/mL
same,MIC,[4]; [22],4 µg/mL
same,MIC,[16],4 µg/mL
same,MIC,[5]; [22],8 µg/mL
same,MIC,[17],6 µg/mL
same,MIC,[18],5 µg/mL
same,MIC,[6]; [22],8 µg/mL
same,MIC,[7]; [22],5 µg/mL
same,MIC,[8]; [22],8 µg/mL
same,MIC,[19],2 µg/mL
same,MIC,[9]; [22],8 µg/mL
Cn1nc(NC(=O)c2cccnc2)c2sc3ccccc3c21 [Example 66],MIC,[2]; [22],2 µg/mL
same,MIC,[11],2 µg/mL
same,MIC,[3]; [22],6 µg/mL
same,MIC,[12],8 µg/mL
same,MIC,[13],2 µg/mL
same,MIC,[14],2 µg/mL
same,MIC,[15],2 µg/mL
same,MIC,[4]; [22],6 µg/mL
same,MIC,[16],2 µg/mL
same,MIC,[5]; [22],5 µg/mL
same,MIC,[17],2 µg/mL
same,MIC,[18],2 µg/mL
same,MIC,[6]; [22],8 µg/mL
same,MIC,[7]; [22],4 µg/mL
same,MIC,[8]; [22],2 µg/mL
same,MIC,[19],2 µg/mL
same,MIC,[9]; [22],6 µg/mL
O=c1[nH]c(=O)n([C@H]2C[C@H](O)[C@@H](CO)O2)cc1I [Idoxuridine],Effectiveness in herpes simplex keratitis,[20],effective for the topical treatment of herpes simplex keratitis
CN1C(=O)/C(=N\NC(N)=S)c2ccccc21 [Methisazone],Effectiveness for prevention of smallpox,[21],effective for the prevention of smallpox
Nc1ncnc2c1ncn2[C@@H]1O[C@H](CO)[C@@H](O)[C@@H]1O [adenine arabinoside],Effectiveness in herpes simplex keratitis,[20],effective for the topical treatment of herpes simplex keratitis
